# Data from US20120283298A1, “METHODS FOR TREATING MEMORY IMPAIRMENT” (priority 2009, published 2012).
# “Also recorded” adds a separate entry of the source.
# Columns and labels:
# SAMP8 mice [1] = test: T-maze foot-shock avoidance acquisition after acute i.c.v. injection; type: in vivo, mouse
# Description: T-Maze Testing. The T-maze avoidance apparatus training and testing procedures have been previously described, and shown as an effective means to assess learning in SAMP8 mice (Flood and Morley, 1993; Farr et al., 2000). […] Octreotide is a primarily SSTR2 agonist, of the SRIF-1 family, serving as an additional control set. Forty-eight hours prior to testing, the mice were anesthetized with 2,2,2-tribromoethanol, placed in a stereotaxic instrument, and the scalp was deflected. A unilateral hole was drilled 0.5 mm anterior and 1.0 mm to the right of the bregma. […] This time frame is consistent with work by others showing somatostatin administration over 24 hrs decreased Aβ1-42 concentrations in the brain (Saito et al., 2005). […] Twenty-four hours following drug administration mice were evaluated using the T-maze test.
# The T-maze consisted of a black plastic alley with a start box at one end and two goal boxes at the other. The start box was separated from the alley by a plastic guillotine door, which prevented movement down the alley until training began. An electrifiable stainless steel rod floor ran throughout the maze to deliver scrambled foot-shock. Mice were trained and tested between 07:00 and 15:00 h. Mice were not permitted to explore the maze prior to training. A block of training trials began when a mouse was placed into the start box. The guillotine door was raised and a buzzer sounded simultaneously; 5 s later foot-shock was applied. The goal box entered on the first trial was designated “incorrect” and the foot-shock was continued until the mouse entered the other goal box, which in all subsequent trials was designated as “correct” for the particular mouse. At the end of the acquisition trial, mice were decapitated and the brains flash frozen and stored at −80° C. for subsequent analyses.
# Aβ42 = test: ELISA analysis of Aβ42 in brain tissue ex vivo; parameters: species or system mouse
# Experimental: Brain levels of Aβ42 were evaluated ex vivo, from flash frozen whole brain tissue following respective behavioral analyses, using ultra-centrifugation and solid phase extraction methods (Lanz and Schachter, 2006; Zupa-Fernandez et al., 2007), coupled with Enzyme-linked immunosorbent assay (ELISA) analysis. Half of the brain tissue was dedicated to Western blot examinations with remainder used for Aβ42 evaluation. Brain tissue was homogenized and incubated with 1 mL 50 mM NaCl, 0.4% DEA, pH=10, containing protease inhibitor (Roche, Indianapolis, Ind.). Samples were kept on ice for 20 min, followed by sonication at 30% for 30 sec. Samples were then incubated at room temperature (3 h) followed by centrifugation at 355,000×g for 30 min (4° C.). Supernatant was collected for extraction using Oasis HLB 3 cc columns (Waters, Milford, Mass.). Oasis columns were activated with 2 mL methanol (MeOH), followed by 2 mL diH2O. Brain homogenates were loaded in 1 mL increments. Samples were then washed sequentially with 1 mL volumes of 5% and 30% MeOH, then eluted with 1 mL 2% NH4OH in 90% MeOH. Eluted samples were collected and vacuum-centrifuged at 1400 rpm, 60° C. for 90-120 min. Once samples were dried completely, they were stored at −80° C. until assay. Samples were reconstituted and analyzed in duplicate according to ELISA assay directions (Beta-Mark Aβx-42, Covance, Dedham, Mass.) via luminometer (Lumistar Optima, BMG Labtech, Durham, N.C.). Aβ42 levels were calculated from linear-regression curve in pg/ml and then set to gram weight of brain tissue and normalized to respective controls.
# Evaluation of Aβ. Brain levels of Aβ42 were evaluated ex vivo as described above in Example 1.
# SAMP8 mice [2] = test: T-maze acquisition and retention after chronic i.p. administration; type: in vivo, mouse; settings: for mean trials to first avoidance versus vehicle (learning): day 21
# Experimental: T-Maze testing. The T-maze avoidance apparatus, training and testing procedures were as previously described in Example 1. […] Dosing range for i.p. administration (0.2-200 μg) was extrapolated from previous i.c.v. administration data as described in Example 1 above. Respective doses were given once a day over a period of 28 days. Learning and memory was assessed by the T-maze model. Learning evaluations were conducted at three weeks of treatment (day 21), while memory was assessed after one additional week of treatment (day 28). […] At the end of the evaluations mice were decapitated and the brains flash frozen and stored at −80° C. for subsequent analyses.
# SSTR4, APP, and NEP = test: Western blot expression of SSTR4, APP and NEP in brain tissue ex vivo; parameters: species or system mouse
# Experimental: Protein expression of brain tissues was evaluated ex vivo, from flash frozen whole brain tissue following respective behavioral analyses, by Western blot analyses for SSTR4, APP and NEP. Tissues were homogenized in RIPA buffer containing protease inhibitor (Roche) using a 1:10 ratio (0.5 g=5 ml), transferred into tubes and spun at 10,000×g for 20 min (4° C.). The supernatant was taken and a protein assay was used to determine the amount of protein present. Samples (100 μg) were separated using an electrophoretic field on Biorad (Bio-Rad, Hercules, Calif.) Tris HCl gels (10%) at 175 V for 70 min following heating at 95° C. for 5 min. GelCode Blue Stain (Pierce, Rockford, Ill.) was used to confirm appropriate protein loading. The proteins were then transferred to nitrocellulose membranes with 240 mA at for 45 min (4° C.). The membranes were then blocked using 5% nonfat milk-Tris-buffered saline (20 mM Tris base, 137 mM NaCl, pH 7.6) with 0.1% Tween-20 for 4 h and then incubated overnight at 4° C. with primary antibodies (1:1,000-1:2,000 dilution) in PBS-0.5% BSA. Antibodies shown effective: SSTR4 (Sigma-Aldrich), NEP (Millipore, Billerica, Mass.), and APP (Millipore). The membranes were then washed with 5% nonfat milk-Tris-buffered saline buffer before incubation with the respective secondary antibody at a 1:2,000 dilution (in PBS-0.5% BSA) for 60 min at room temperature. Blots were developed using the enhanced chemiluminescence method (ECL+; Amersham Life Science Products; Springfield, Ill.), and protein bands visualized on X-ray film. Optical densities were measured by densitometer (Biorad) and evaluated against respective controls. After each initial protein expression assessment, membranes were then stripped and re-probed with actin (Sigma-Aldrich).
# Protein expression in brain tissues was evaluated ex vivo as described above in Example 1.
# SAMP8 mice [3] = test: Object-recognition task after i.c.v. injection; type: in vivo, mouse; settings: 0.2 μg i.c.v., 48 h after injection
# Experimental: Object-recognition is a non-spatial memory recognition task, shown to be effective in SAMP8 mice (Bevins and Besheer, 2006; Fontan-Lozano et al., 2008). In this task, treated and control mice are measured as to the difference in time spent with a familiar (or remembered) object and a novel object. Mice received a single optimized dose (0.2 μg) determined from T-maze assessment, against vehicle control (0 μg). Dosing was performed 24 h prior to the initial training period and the recognition task was evaluated 24 h after training (i.e. 48 h after dosing). Mice were habituated to an empty apparatus (55×40×40 cm) for 5 min a day for 3 days prior to entry of the objects. On the day of training two similar objects were placed in the maze. Mice were placed in the maze and allowed to explore the objects for 5 min. In the 24-h retention test, one of the same objects is placed in the maze, as well as a new object in a new location. The difference in percent time spent exploring the new object over the familiar object was then determined. The criteria for exploration were based strictly on active exploration, where the mouse had both forelimbs within a circle of 1.5 cm around the object, with its head oriented toward it, or when touching it with its vibrissae. At the end of the retention trial, mice were decapitated and the brains flash frozen and stored at −80° C. for subsequent analyses.
# APPswe transgenic mice = test: T-maze avoidance learning acquisition in APPswe transgenic mice after i.c.v. injection; type: in vivo, mouse; settings: 0.2 μg i.c.v.
# Description: The APPswe transgenic mouse carries a transgene coding for the 695-amino acid isoform of human Alzheimer A R precursor protein. (K. Hsiao et al., 274 Science 99-102, 1996). These mice express high concentrations of the mutant AR , with significant amyloid plaques, and display memory deficits. At 11-13 months of age they show a 14-fold increase in AR (1-42/43) over those at 2-8 months of age. Elevated AR levels are associated with the development of amyloid deposits in frontal, temporal and entorhinal cortex, hippocampus, presubiculum, and cerebellum, with some mice developing the signature cross pattern of deposits seen inhuman AD. […] Thus APPswe transgenic mice are also a good model for studying APP expression, amyloid plaque formation, neuronal decline, and memory loss associated with AD, and for studying drug candidates for treatment or prevention of AD. APPswe (Tg2576) mice, and non-transgenic siblings as controls, were obtained from Taconic (New York). All other materials and methods were as described for Example 1.
# AAPswe transgenic mice were administered 0.2 μg of NNC 26-91001.c.v. after a 2 hour fasting period, followed by an additional hour of fasting after administration. Animals were tested using the T-maze model as described above in Example 1.
# [4] = Body weight and behaviour during chronic i.p. dosing; type: in vivo, mouse; settings: SAMP8 mice, i.p. 0.2-200 μg once a day, 28 days
# [5] = 0.2 μg i.c.v., after object-recognition task
smiles,measurement,setting,value
"CC(C)C[C@H](NP(=O)(O)O[C@@H]1O[C@@H](C)[C@H](O)[C@@H](O)[C@H]1O)C(=O)N[C@@H](Cc1c[nH]c2ccccc12)C(=O)O [phosphoramidon, reference compound]","mean trials to first avoidance, vehicle versus vehicle combined with phosphoramidon","SAMP8 mice [1]; any dose of phosphoramidon (1 or 10 mM), i.c.v.",No significant change
same,"Aβ42 within vehicle groups (vehicle alone, +1 mM or +10 mM phosphoramidon)","Aβ42; i.c.v., post-T-maze",No change
"C[C@@H](O)[C@@H]1NC(=O)[C@H](CCCCN)NC(=O)[C@@H](Cc2c[nH]c3ccccc23)NC(=O)[C@H](Cc2ccccc2)NC(=O)[C@@H](NC(=O)[C@H](N)Cc2ccccc2)CSSC[C@@H](C(=O)N[C@H](CO)[C@@H](C)O)NC1=O [octreotide, reference compound]",learned acquisition compared to vehicle,"SAMP8 mice [1]; SAMP8 mice, i.c.v., any dose 0.002-2.0 μg",no significant effects
S=C(NCCCc1c[nH]cn1)N(CCc1c[nH]c2ccccc12)Cc1cccc(Cl)c1Cl [LIU 686-06A],mean trials to first avoidance versus vehicle (learning),SAMP8 mice [2]; i.p. 0.2 μg daily,significantly lower number of mean trials to first avoidance
same,mean trials to criterion versus vehicle,"SAMP8 mice [2]; i.p. 20 μg daily, day 21 as printed",significantly lower number of mean trials to first criterion
S=C(NCCCc1c[nH]cn1)NCCCN(Cc1ccc(Cl)c(Cl)c1)c1ccc(Br)cn1 [NNC 26-9100],mean trials to first avoidance versus NNC 26-9100 alone,"SAMP8 mice [1]; 0.2 μg i.c.v. co-administered with 1 mM phosphoramidon, p<0.05",significant increase in the number of mean trials to first avoidance
same,trials to first avoidance versus NNC 26-9100+1 mM phosphoramidon,SAMP8 mice [1]; 0.2 μg i.c.v. co-administered with 10 mM phosphoramidon,significantly higher number of trials to first avoidance
same,mean trials to first avoidance versus NNC 26-9100 alone,"SAMP8 mice [1]; 0.2 μg i.c.v. co-administered with 10 mM phosphoramidon, p<0.01",significant increase in the number of mean trials to first avoidance
same,learned avoidance (mean trials to first avoidance) compared to vehicle,"SAMP8 mice [1]; SAMP8 mice, i.c.v., 0.2 μg, T-maze 24 h after injection",significant improvement; also recorded: significantly lower number of mean trials to first avoidance
same,Aβ42 versus NNC 26-9100 alone group,"Aβ42; 0.2 μg i.c.v. + 10 mM phosphoramidon, post-T-maze",significant increase
same,Aβ42 versus vehicle,Aβ42; [5],no significant change
same,decrease in Aβ42 compared to vehicle,"Aβ42; SAMP8 brain, post-T-maze, i.c.v., all doses 0.002-2.0 μg",~20%
same,Aβ42 versus vehicle,"Aβ42; chronic i.p. 20 μg daily, 28 days",significant decrease
same,Aβ42 versus vehicle,"Aβ42; chronic i.p., any other dose (0.2-200 μg range)",no significant changes
same,"SSTR4, APP, or NEP expression, NNC 26-9100 alone, co-administered phosphoramidon, and versus vehicle alone","SSTR4, APP, and NEP; 0.2 μg i.c.v., +1 mM or +10 mM phosphoramidon",No changes
same,"expression of SSTR4, APP, or NEP versus vehicle","SSTR4, APP, and NEP; [5]",No significant changes
same,"expression of SSTR4, APP, or NEP compared to vehicle","SSTR4, APP, and NEP; SAMP8 brain, i.c.v., 0.002-2.0 μg",no significant changes
same,"expression of SSTR4, APP, or NEP versus vehicle","SSTR4, APP, and NEP; chronic i.p., any dose (0.2-200 μg daily), 28 days",No significant changes
same,enhancement in recognition memory (time with novel object) versus vehicle,SAMP8 mice [3],approximately 2 fold
same,mean trials to first avoidance versus vehicle (learning),SAMP8 mice [2]; i.p. 20 μg daily,significantly lower number of mean trials to first avoidance
same,mean trials to criterion versus vehicle (memory),"SAMP8 mice [2]; i.p. 20 μg daily, day 28, p<0.01",significantly lower mean trials to criterion
same,mean trials to first avoidance versus vehicle (learning),SAMP8 mice [2]; i.p. 200 μg daily,significantly lower number of mean trials to first avoidance
same,mean trials to criterion versus vehicle (memory),"SAMP8 mice [2]; i.p. 200 μg daily, day 28, p<0.05",significantly lower mean trials to criterion
same,avoidance learning acquisition,APPswe transgenic mice,effects in AAPswe transgenic mice similar to those obtained in SAMP8 mice
same,weight loss or abnormal behaviors,[4],no animals in the study exhibiting weight loss or abnormal behaviors
